The target of the test is Opc (Neisseria meningitidis, UniProt Q7DDI3). Format: binding. The conditions noted are these: Opc+ outer membrane preparation (4 mg/ml, PBS) in cell, 100 µM glycan in syringe; Opc- preparation and PBS controls subtracted.

This passage reports Kd results from paper PMC5515891 (Scientific Reports, 2017).

As usually defined, the Kd is the equilibrium constant for the complex coming apart.

The structures appear in SMILES notation.

Chain of Opc (Q7DDI3 20-272 limits assumed): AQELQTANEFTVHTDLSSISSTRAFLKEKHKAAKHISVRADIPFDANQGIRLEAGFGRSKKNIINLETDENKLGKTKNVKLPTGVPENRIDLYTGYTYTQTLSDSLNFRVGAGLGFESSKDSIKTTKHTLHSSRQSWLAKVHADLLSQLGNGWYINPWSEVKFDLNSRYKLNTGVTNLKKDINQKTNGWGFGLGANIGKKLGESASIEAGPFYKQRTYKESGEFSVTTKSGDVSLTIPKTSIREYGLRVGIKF

In turn, `C[C@@H]1O[C@@H](O[C@H]2C(O)O[C@H](CO)[C@H](O)[C@@H]2O)[C@@H](O)[C@H](O)[C@@H]1O` (stereo partly drawn) [compound 71, Fucα1-2Galβ] yielded a Kd of 2.95 ± 0.59 µM.

`CC(=O)N[C@H]1[C@H]([C@H](O)[C@H](O)CO)O[C@@](OC[C@H]2O[C@@H](O[C@H]3[C@H](O)[C@@H](O)C(O)O[C@@H]3CO)[C@H](O)[C@@H](O)[C@H]2O)(C(=O)O)C[C@@H]1O` (stereo partly drawn) [11B, Neu5Acα2-6Galβ1-4Glc]: the Kd was 0.713 ± 0.14 µM.

`CC(=O)N[C@H]1[C@H](O[C@H]2[C@@H](O)[C@@H](CO)O[C@@H](O[C@H]3[C@H](O)[C@@H](O)C(O)O[C@@H]3CO)[C@@H]2O)O[C@H](CO)[C@@H](O[C@@H]2O[C@H](CO)[C@H](O)[C@H](O)[C@H]2O)[C@@H]1O` (stereo partly drawn) [compound 383, Galβ1-4GlcNAcβ1-3Galβ1-4Glcβ] registered a Kd of 1.77 ± 0.69 µM.
